Each block holds one compound with its values, some of them ahead of it. Activity calls are given as the source filed them.
Columns and labels:
[1] = HGIII-sPLA2 enzyme inhibition potency – biochemical, QFRET, IC50, dose response (AID 743457);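 note: green fluorescence rise as the enzyme cleaves BODIPY PC-A2 in liposomes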
[2] = biological target: T1, Trace amine-associated receptor 1 (Homo sapiens, UniProt Q96RJ0); test: Fluorescence-based cell-based high throughput dose response assay to identify antagonists of the human trace amine associated receptor 1 (TAAR1).; format: functional
T1 sequence (Q96RJ0 whole entry): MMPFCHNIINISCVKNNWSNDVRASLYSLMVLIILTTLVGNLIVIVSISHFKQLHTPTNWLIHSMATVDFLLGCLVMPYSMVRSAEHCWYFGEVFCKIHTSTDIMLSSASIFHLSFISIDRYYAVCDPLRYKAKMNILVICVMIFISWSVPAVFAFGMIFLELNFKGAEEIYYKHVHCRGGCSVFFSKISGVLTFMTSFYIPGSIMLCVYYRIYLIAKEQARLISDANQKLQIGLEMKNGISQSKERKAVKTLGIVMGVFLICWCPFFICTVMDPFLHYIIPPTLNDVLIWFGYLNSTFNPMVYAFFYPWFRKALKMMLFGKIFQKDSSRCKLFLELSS

[3] = Counterscreen for […] of the human trace amine associated receptor 1 (TAAR1): Fluorescence-based cell-based high throughput dose response assay to identify nonselective Ga16 agonists.; format: functional
[4] = biological target: T1, Trace amine-associated receptor 1; test: Counterscreen for antagonists of the human trace amine associated receptor 1 (hTAAR1): Fluorescence-based cell-based high throughput dose response assay to identify TAAR1 Agonists.; format: functional
[5] = Counterscreen for antagonists of the human trace amine associated receptor 1 (hTAAR1): Fluorescence-based cell-based high throughput dose response assay to identify nonselective Ga16 antagonists.; format: functional
[6] = Trypanosoma cruzi growth suppression in host cells – NIH3T3 host cells, beta-gal luminescence, confirmation (AID 2044); format: functional, cell-based;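 note: intracellular parasites grown in NIH/3T3 mouse fibroblasts as host cells; luminescent beta-galactosidase reporter signal from transgenic T. cruzi replicating inside host cells; inhibitors lower the luminescence signal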
[7] = NIH3T3 cell viability loss – ATP luminescence, mouse fibroblasts, counter-screen, dose response (AID 2010); format: functional, cell-based;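 note: cells exposed to compound for about 90 hours before reading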
[8] = biological target: SWI/SNF-related matrix-associated actin-dependent regulator of chromatin subfamily A member 2 (Homo sapiens, UniProt P51531); test: Luminescence-based cell-based high throughput dose response assay to identify activators of the function of SWI/SNF related, matrix associated, actin dependent regulator of chromatin, subfamily a, member 2 (SMARCA2, BRM).; format: functional
[9] = biological target: T2, Short transient receptor potential channel 4 (Mus musculus, UniProt Q9QUQ5); test: block of DAMGO-driven TRPC4 calcium entry – cell-based, HEK293 TRPC4/mu-opioid, Fluo-4 calcium, dose response (AID 434942); format: functional;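 note: potency of inhibitors blocking the TRPC4 calcium response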
T2 sequence (Q9QUQ5 whole entry): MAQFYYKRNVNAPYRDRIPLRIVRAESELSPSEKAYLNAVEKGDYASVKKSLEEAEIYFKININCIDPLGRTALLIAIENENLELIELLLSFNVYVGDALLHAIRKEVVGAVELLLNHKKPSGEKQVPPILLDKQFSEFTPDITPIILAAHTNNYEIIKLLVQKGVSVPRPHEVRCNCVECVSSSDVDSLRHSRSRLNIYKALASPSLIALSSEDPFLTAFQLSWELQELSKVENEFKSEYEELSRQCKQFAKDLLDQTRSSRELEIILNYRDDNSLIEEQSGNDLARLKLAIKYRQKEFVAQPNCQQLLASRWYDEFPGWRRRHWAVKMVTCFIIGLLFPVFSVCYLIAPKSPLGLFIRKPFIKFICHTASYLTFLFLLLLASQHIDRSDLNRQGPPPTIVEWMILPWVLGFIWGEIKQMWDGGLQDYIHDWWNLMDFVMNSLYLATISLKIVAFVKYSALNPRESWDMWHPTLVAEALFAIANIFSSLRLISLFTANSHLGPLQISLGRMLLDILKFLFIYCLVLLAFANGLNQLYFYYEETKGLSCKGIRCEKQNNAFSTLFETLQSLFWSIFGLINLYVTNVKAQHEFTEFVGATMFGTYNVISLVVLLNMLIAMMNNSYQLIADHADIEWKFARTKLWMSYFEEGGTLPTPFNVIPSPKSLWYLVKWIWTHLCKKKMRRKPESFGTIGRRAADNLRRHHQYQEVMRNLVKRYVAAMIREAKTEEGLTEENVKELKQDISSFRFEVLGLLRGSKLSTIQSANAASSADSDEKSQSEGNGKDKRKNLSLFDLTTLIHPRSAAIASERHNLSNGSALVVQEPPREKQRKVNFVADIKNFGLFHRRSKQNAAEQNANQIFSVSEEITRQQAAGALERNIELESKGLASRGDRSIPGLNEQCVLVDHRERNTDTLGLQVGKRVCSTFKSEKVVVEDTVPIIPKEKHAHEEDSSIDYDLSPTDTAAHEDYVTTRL

[10] = Counterscreen for activators of the function of SWI/SNF related, matrix associated, actin dependent regulator of chromatin, subfamily a, member 2 (SMARCA2, BRM): Luminescence-based cell-based high throughput dose response assay to identify non-selective compounds using the VP16 reporter assay.; format: functional
[11] = general mammalian cell viability loss – inhibitor set, cherry-pick, set 2, cytotoxicity control for miR-122 modulator project, dose response (AID 720697); format: functional, cell-based
[12] = biological target: T3, Sentrin-specific protease 8 (Homo sapiens, UniProt Q96LD8); format: functional
T3 sequence (Q96LD8 whole entry): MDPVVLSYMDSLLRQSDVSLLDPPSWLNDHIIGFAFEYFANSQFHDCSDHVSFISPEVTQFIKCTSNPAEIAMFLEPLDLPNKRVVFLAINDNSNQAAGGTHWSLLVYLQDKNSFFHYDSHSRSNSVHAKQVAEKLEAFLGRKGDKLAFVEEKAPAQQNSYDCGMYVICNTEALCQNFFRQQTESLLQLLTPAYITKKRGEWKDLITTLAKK

[13] = biological target: T4, Polyadenylate-binding protein 1 (Homo sapiens, UniProt P11940); test: MLLE domain peptide-binding blockers, IC50 – biochemical, fluorescence polarization, FITC-PAM2 peptide, dose response (AID 602259); format: functional; conditions: read-out: IC50_Mean
[14] = biological target: T3, Sentrin-specific protease 8; format: functional; remark: listed apart in the source
Caspase-3 = biological target: T5, Caspase-3 (Homo sapiens, UniProt P42574); test: Dose-response confirmation of uHTS inhibitor hits of Sentrin-Specific Protease 8 in a Caspase-3 Fluorescence assay.; format: functional
T5 sequence (P42574 whole entry): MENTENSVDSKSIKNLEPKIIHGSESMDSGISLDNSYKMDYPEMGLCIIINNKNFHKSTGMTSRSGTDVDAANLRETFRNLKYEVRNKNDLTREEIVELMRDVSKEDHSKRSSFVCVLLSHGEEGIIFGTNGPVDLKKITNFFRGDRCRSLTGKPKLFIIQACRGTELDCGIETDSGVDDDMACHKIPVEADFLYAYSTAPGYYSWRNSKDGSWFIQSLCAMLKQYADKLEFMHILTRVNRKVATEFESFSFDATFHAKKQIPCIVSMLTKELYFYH

[15] = biological target: T4, Polyadenylate-binding protein 1; test: MLLE binding blockers, Cy5 peptide tracer – biochemical, fluorescence polarization, Cy5-PAM2 peptide, secondary, miRNA deadenylation inhibitor project, dose response (AID 602260); format: functional; conditions: read-out: IC50_Mean
P388/ADR = test: cells; format: functional; conditions: Mus musculus
P388 = test: cells; format: functional; conditions: Mus musculus
[16] = cytotoxicity in untransfected HEK293T cells – cell-based, CellTiter-Glo luminescence, dry powder, counter-screen for EBV LMP1 inhibitor project, dose response (AID 624372); format: functional, HEK293
SN12K1 = test: cells; format: functional; conditions: Homo sapiens
[17] = biological target: T6, Corticotropin-releasing factor receptor 2/Corticotropin-releasing factor-binding protein (Homo sapiens, UniProt P24387+Q13324); test: activators of CRF receptor 2 with binding protein – uHTS hits, confirmation (AID 602473); format: functional; conditions: read-out: EC50_Mean
T6 sequence (Q13324 whole entry): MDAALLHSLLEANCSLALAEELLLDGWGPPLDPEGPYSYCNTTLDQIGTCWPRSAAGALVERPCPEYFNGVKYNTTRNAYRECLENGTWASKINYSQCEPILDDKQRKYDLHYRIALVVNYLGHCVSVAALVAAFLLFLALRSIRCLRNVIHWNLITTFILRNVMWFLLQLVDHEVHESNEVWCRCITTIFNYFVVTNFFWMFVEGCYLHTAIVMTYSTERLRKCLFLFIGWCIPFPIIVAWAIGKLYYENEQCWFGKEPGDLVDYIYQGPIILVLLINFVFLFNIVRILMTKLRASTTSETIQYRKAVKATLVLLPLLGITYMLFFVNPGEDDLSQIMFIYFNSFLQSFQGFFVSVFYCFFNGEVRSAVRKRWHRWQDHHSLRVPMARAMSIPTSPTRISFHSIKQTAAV
T6 sequence (P24387 whole entry): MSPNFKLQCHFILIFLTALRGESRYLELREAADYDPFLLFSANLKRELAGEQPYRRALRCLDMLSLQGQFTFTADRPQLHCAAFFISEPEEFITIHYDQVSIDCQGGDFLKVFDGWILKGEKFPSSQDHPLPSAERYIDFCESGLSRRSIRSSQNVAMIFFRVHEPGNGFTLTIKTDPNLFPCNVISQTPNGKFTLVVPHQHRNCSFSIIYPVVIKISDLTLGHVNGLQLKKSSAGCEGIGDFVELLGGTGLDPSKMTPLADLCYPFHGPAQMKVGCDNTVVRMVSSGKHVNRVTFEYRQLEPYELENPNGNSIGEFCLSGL

[18] = biological target: T6, Corticotropin-releasing factor receptor 2/Corticotropin-releasing factor-binding protein; test: Dose Response confirmation of uHTS hits for small molecule antagonists of the CRF-binding protein and CRF-R2 receptor complex.; format: functional; conditions: read-out: IC50_Mean
[19] = blockers of CRF-binding protein–CRF-R2 complex – cell-based, uHTS hits, 384-well, dose response (AID 651639); format: functional, Homo sapiens; conditions: read-out: IC50_Mean

T4 sequence (P11940 whole entry, the tested form may be a part): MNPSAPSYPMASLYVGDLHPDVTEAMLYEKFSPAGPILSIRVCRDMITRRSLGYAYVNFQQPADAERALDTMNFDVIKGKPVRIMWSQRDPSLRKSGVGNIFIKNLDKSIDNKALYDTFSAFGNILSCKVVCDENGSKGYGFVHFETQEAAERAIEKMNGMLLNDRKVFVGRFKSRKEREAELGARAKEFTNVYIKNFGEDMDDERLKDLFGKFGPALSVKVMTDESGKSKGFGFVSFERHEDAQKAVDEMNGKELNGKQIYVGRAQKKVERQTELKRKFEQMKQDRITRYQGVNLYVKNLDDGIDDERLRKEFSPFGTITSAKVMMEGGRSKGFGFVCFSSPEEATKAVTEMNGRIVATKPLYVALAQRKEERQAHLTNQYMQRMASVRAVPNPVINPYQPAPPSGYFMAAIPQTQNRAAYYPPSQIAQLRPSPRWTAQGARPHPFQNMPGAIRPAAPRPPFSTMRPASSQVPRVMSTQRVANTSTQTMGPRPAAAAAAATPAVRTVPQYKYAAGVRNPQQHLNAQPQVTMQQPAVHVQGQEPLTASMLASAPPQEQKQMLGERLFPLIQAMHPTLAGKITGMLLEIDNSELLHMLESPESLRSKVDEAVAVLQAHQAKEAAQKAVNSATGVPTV
Chain of SWI/SNF-related matrix-associated actin-dependent regulator of chromatin subfamily A member 2 (P51531 whole entry): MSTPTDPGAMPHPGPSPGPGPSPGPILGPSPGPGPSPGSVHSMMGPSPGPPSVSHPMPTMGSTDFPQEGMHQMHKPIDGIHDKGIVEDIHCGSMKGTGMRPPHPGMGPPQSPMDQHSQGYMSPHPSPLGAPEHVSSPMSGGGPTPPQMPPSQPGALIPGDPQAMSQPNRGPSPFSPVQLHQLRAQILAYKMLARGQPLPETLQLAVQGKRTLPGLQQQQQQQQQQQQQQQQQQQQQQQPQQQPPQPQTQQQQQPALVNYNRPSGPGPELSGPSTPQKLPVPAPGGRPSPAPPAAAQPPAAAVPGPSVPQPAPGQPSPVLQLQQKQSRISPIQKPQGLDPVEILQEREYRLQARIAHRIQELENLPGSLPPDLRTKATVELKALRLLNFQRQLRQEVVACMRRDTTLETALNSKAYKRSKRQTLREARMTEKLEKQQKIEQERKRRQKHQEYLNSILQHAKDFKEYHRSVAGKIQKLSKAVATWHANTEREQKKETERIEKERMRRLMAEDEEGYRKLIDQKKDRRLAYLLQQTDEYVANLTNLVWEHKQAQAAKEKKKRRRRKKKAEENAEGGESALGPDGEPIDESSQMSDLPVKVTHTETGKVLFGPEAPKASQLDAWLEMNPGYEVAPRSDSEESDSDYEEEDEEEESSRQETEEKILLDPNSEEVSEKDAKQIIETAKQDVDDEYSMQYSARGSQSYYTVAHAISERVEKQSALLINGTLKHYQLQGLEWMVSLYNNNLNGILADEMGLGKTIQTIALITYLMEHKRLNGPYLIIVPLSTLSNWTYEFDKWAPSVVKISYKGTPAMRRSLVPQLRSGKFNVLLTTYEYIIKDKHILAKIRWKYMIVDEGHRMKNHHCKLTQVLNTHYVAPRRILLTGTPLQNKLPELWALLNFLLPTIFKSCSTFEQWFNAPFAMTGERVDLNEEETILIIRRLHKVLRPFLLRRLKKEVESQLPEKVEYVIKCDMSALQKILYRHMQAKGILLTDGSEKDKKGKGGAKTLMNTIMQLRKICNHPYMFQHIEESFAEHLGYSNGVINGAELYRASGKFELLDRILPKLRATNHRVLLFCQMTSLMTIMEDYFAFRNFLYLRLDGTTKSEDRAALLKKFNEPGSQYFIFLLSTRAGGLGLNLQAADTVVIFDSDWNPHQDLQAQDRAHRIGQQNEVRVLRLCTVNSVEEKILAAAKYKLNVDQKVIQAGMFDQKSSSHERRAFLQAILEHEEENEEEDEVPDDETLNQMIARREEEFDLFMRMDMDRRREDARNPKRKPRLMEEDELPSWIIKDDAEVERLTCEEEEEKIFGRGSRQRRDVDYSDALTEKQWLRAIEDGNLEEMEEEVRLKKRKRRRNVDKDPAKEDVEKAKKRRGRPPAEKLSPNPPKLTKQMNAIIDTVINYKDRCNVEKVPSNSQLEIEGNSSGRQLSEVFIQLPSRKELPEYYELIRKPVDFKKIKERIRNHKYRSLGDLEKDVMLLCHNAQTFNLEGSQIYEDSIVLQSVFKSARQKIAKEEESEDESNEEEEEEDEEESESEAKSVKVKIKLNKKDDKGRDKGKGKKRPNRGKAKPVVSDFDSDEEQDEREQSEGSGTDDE

- IC50 [1]: > 122 µM (inactive)
Structure (SMILES): Cc1cccc(NC(=O)NNC(=O)c2ccc3ccccc3c2O)c1

Structure (SMILES): CN(CC(=O)Nc1cccc(F)c1)C(=O)c1ccccc1OCC(=O)Nc1cccc(C(F)(F)F)c1
- IC50 [2]: 6.89 µM (active)
- EC50 [3]: > 29.9 µM (inactive)
- EC50 [4]: > 29.9 µM (inactive)
- IC50 [5]: 13.5 µM (inactive)
- EC50 [6]: 0.775 µM (active)
- EC50 [7]: > 60 µM (not active)

Structure (SMILES): Cn1cc(-c2nc3ccccc3[nH]2)c2ccccc21
- EC50 [8]: > 91.2 µM (inactive)
- EC50 [9]: 3.76 µM (active)
- EC50 [10]: > 91.2 µM (inactive)

Structure (SMILES): Cn1c(-c2ccc(N)cc2)nc2ccccc21
- AC50 [11]: 9.34 µM (active)

- IC50 [13]: > 66 µM (inactive)
- IC50 (Caspase-3): 4.41 µM (active)
- IC50 [15]: > 66 µM (inactive)
Structure (SMILES): Cc1ccc(N2C(=O)[C@@H]3[C@H](C2=O)C2c4ccccc4C=CN2[C@@H]3C(=O)c2ccco2)cc1 (stereo partly drawn)
- IC50 [12]: 0.785 µM (active)
- IC50 [14]: 5.38 µM (active)

Structure (SMILES): C/C(=N\NC(=S)N1CCN(C2CCCCCC2)CC1)c1ccccn1
- GI50 (P388/ADR): < 0.01 µM (active)
- GI50 (P388): < 0.01 µM (active)
- AbsAC35 [16]: 162.11 µM
- GI50 (SN12K1): 0.01 µM (active)

- EC50 [17]: > 53 µM (inactive)
- IC50 [18]: 5.7 µM (active)
- IC50 [19]: > 20 µM (inactive)
Structure (SMILES): COC(=O)C1=C/C=C\CN(C(c2ccccc2)c2ccccc2)/C=C\1C(=O)OC

Reference: ChEMBL document CHEMBL1201862, “PubChem BioAssay data set” (2004)
